Laboratory results: US8071598B2, “3,9-diazabicyclo[3.3.1]nonane derivatives and their use as monoamine neurotransmitter re-uptake inhibitors” (Neurosearch A/S, priority 2006, dated 2011)
Structures can show the parent of a compound that is named as a salt. Where two headings read alike, the source gives them in different places.

Tests used:
[1] = molecular target: T1, reuptake of noradrenaline (NA) in synaptosomes (Rattus norvegicus, UniProt Q63380); test: Inhibition of noradrenaline (NA) reuptake in synaptosomes; format: biochemical
T1 construct: in synaptosomes as described in WO 97/16451; from tissue; host or cells: synaptosomes (brain tissue)

[2] = molecular target: T2, reuptake of serotonine (5-HT) in synaptosomes (Rattus norvegicus, UniProt P31652); test: Inhibition of serotonine (5-HT) reuptake in synaptosomes; format: biochemical
T2 construct: in synaptosomes as described in WO 97/16451; from tissue; host or cells: synaptosomes (brain tissue)
Description: A number of compounds were tested for their ability to inhibit the reuptake of the monoamine neurotransmitters dopamine (DA) noradrenaline (NA) and serotonine (5-HT) in synaptosomes as described in WO 97/16451.
The test values are given as IC50 (the concentration (μM) of the test substance which inhibits the specific binding of ^3H-DA, ^3H-NA, or ^3H-5-HT by 50%).

[3] = molecular target: T3, reuptake of dopamine (DA) in synaptosomes (Rattus norvegicus, UniProt P23977); test: Inhibition of dopamine (DA) reuptake in synaptosomes; format: biochemical
T3 construct: in synaptosomes as described in WO 97/16451; from tissue; host or cells: synaptosomes (brain tissue)
T3 sequence (P23977 whole entry): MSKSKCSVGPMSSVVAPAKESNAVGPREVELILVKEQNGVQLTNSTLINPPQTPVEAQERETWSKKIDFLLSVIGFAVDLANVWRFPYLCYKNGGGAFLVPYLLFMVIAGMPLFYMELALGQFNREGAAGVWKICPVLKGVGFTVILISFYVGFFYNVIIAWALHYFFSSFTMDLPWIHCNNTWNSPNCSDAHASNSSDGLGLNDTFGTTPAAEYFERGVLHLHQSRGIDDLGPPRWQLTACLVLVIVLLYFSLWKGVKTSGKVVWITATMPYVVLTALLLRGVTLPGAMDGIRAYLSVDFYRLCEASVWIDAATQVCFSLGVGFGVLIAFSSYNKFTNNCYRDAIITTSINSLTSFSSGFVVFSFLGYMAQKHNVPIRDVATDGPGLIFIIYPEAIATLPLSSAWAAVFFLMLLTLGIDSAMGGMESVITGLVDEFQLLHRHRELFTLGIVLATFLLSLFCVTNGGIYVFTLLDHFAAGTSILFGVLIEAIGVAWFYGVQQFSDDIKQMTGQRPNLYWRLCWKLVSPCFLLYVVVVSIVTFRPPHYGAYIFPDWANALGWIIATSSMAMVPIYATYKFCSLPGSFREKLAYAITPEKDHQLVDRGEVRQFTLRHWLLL

T2 sequence (P31652 whole entry): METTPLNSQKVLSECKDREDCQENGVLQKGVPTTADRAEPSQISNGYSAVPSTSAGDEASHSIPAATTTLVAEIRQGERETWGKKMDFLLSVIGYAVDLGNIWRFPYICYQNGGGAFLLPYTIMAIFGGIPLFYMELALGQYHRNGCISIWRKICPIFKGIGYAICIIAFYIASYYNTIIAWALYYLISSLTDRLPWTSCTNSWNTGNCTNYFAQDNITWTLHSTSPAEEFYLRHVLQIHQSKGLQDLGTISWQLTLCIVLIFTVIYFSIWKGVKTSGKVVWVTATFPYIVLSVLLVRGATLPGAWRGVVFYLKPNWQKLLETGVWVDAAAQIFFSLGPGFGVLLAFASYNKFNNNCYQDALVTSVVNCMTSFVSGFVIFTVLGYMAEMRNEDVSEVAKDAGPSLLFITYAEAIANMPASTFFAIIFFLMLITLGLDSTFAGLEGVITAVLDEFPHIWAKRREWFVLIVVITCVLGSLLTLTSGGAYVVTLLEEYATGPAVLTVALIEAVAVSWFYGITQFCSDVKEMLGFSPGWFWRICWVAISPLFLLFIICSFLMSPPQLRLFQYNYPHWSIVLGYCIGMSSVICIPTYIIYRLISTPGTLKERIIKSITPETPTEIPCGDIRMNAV
T1 sequence (Q63380 1-617): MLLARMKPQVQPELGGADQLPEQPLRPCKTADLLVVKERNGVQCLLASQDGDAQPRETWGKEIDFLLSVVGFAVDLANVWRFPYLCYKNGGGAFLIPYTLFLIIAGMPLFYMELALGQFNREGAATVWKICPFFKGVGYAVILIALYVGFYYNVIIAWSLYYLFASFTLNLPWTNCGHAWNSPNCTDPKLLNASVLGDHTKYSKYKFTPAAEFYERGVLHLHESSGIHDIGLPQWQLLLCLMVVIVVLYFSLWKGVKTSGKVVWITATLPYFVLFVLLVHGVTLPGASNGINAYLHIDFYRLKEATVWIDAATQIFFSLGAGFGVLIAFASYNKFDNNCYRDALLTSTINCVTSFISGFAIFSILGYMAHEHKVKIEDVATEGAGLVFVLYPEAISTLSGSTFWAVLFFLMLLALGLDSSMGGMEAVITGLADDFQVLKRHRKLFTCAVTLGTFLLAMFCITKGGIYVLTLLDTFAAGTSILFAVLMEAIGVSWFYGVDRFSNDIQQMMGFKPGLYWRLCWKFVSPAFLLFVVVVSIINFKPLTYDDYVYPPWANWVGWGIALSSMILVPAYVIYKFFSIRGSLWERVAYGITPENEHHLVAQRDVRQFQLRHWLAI

Row | Compound | melting point | IC50 [1] | IC50 [2] | IC50 [3] | IC50 ([3]; synaptosomes, 3H-DA, read-out: DA-uptake IC50) | IC50 ([1]; synaptosomes, 3H-NA, read-out: NA-uptake IC50)
1 | COc1ccc2cc(N3CC4CCCC(C3)N4C)ccc2c1 (as salt: fumaric acid salt) [1st compound of Method C, 3-(6-Methoxy-naphthalen-2-yl)-9-methyl-3,9-diaza-bicyclo[3.3.1]nonane] | 190 to 198.3 °C |  |  |  |  | 
2 | Clc1ccc(N2CC3CCCC(C2)N3)cc1Cl (as salt: hydrochloric acid salt) [1st compound of Method B, 3-(3,4-Dichloro-phenyl)-3,9-diaza-bicyclo[3.3.1]nonane] | 295.4 °C |  |  |  |  | 
3 | Clc1ccc(N2CC3CCCC(C2)N3)cc1Cl [1st compound of Method B, 3-(3,4-Dichloro-phenyl)-3,9-diaza-bicyclo[3.3.1]nonane] |  | 7.4 nM | 0.69 nM | 160 nM |  | 
4 | COc1ccc2cc(N3CC4CCCC(C3)N4C)ccc2c1 [1st compound of Method C, 3-(6-Methoxy-naphthalen-2-yl)-9-methyl-3,9-diaza-bicyclo[3.3.1]nonane] |  | 19 nM | 8.1 nM |  | 230 nM | 
5 | CN1C2CCCC1CN(c1ccc3cc(O)ccc3c1)C2 [3rd compound of Method C, 6-(9-Methyl-3,9-diaza-bicyclo[3.3.1]non-3-yl)-naphthalen-2-ol] |  |  | 7.9 nM | 54 nM |  | 110 nM
